Test results: the supplement of paper PMC13380429
± gives the standard deviation of the averaged measurements.

Columns and labels:
Conditions in all cases: 72 h
[1] = system: HepG2; assay: relative viability EC50 (midpoint between 100% and the lowest measured viability); higher = less toxic
[2] = system: Vero E6; assay: as above
[3] = system: Calu-3; assay: as above
[4] = system: Caco-2; assay: as above
[5] = system: U2OS; assay: as above
[6] = system: HepG2; assay: drug sensitivity score (DSS) for viability; higher = more toxic; extreme values may be limits of the assay
[7] = system: Vero E6; assay: as above
[8] = system: Calu-3; assay: as above
[9] = system: Caco-2; assay: as above
[10] = system: U2OS; assay: as above
[11] = system: HepG2; assay: cell viability relative to DMSO; higher = less toxic
[12] = system: Vero E6; assay: as above
[13] = system: Calu-3; assay: as above
[14] = system: Caco-2; assay: as above
[15] = system: U2OS; assay: as above

Row | SMILES | relative viability EC50 [1] | relative viability EC50 [2] | relative viability EC50 [3] | relative viability EC50 [4] | relative viability EC50 [5] | drug sensitivity score [6] | drug sensitivity score [7] | drug sensitivity score [8] | drug sensitivity score [9] | drug sensitivity score [10] | cell viability ([11]; 1 nM) | cell viability ([11]; 10 nM) | cell viability ([11]; 100 nM) | cell viability ([11]; 1000 nM) | cell viability ([11]; 10000 nM) | cell viability ([12]; 1 nM) | cell viability ([12]; 10 nM) | cell viability ([12]; 100 nM) | cell viability ([12]; 1000 nM) | cell viability ([12]; 10000 nM) | cell viability ([13]; 1 nM) | cell viability ([13]; 10 nM) | cell viability ([13]; 100 nM) | cell viability ([13]; 1000 nM) | cell viability ([13]; 10000 nM) | cell viability ([14]; 1 nM) | cell viability ([14]; 10 nM) | cell viability ([14]; 100 nM) | cell viability ([14]; 1000 nM) | cell viability ([14]; 10000 nM) | cell viability ([15]; 1 nM) | cell viability ([15]; 10 nM) | cell viability ([15]; 100 nM) | cell viability ([15]; 1000 nM) | cell viability ([15]; 10000 nM)
1 | C[N+]1([O-])[C@@H]2C[C@@H](OC(=O)[C@H](CO)c3ccccc3)C[C@H]1[C@@H]1O[C@@H]12 (stereo not given in full) [scopolamine-N-oxide] | > 10 µM | > 10 µM | > 10 µM | > 10 µM | > 10 µM | 0 | 0 | 0 | 0 | 0 | 105% | 93.1% | 107% | 107% | 108% | 93.1% | 83.9% | 104% | 97.4% | 107% | 99.7% | 95.4% | 100% | 102% | 94.5% | 88.4% | 97.6% | 85.9% | 96.6% | 102% | 93.9% | 96.5% | 93.9% | 98.5% | 104%
2 | COC1=C[C@@H]2[C@@H]3Cc4ccc(OC)c(O)c4[C@]2(CCN3C)CC1=O [sinomenine] | > 10 µM | > 10 µM | > 10 µM | > 10 µM | > 10 µM | 0.4 | 0 | 0 | 0 | 0 | 109% | 104% | 99.2% | 88.5% | 96.3% | 105% | 97.7% | 103% | 97% | 105% | 100% | 95.4% | 100% | 92.4% | 95.8% | 107% | 96.9% | 90.5% | 98.8% | 104% | 94.1% | 98.5% | 98.8% | 104% | 94.3%
3 | CNS(=O)(=O)Cc1ccc2[nH]cc(CCN(C)C)c2c1 [sumatriptan] | > 10 µM | > 10 µM | > 10 µM | > 10 µM | > 10 µM | 0 | 0 | 0 | 0 | 0 | 81.4% | 106% | 89.1% | 101% | 99.5% | 91.6% | 94.4% | 87.9% | 94.7% | 103% | 101% | 95.7% | 93.6% | 100% | 94.4% | 91.4% | 96.7% | 104% | 106% | 96.2% | 98.1% | 95.2% | 97.8% | 96.2% | 97.7%
4 | CNCCCC1(c2ccccc2)OC(C)(C)c2ccccc21 (stereo not given) [talopram] | > 10 µM | > 10 µM | > 10 µM | > 10 µM | > 10 µM | 0 | 0 | 0 | 0 | 0 | 101% | 102% | 89.8% | 110% | 106% | 93.7% | 96.8% | 90.1% | 99% | 104% | 99.4% | 102% | 102% | 96.3% | 103% | 91.4% | 104% | 103% | 101% | 99.2% | 101% | 98.7% | 100% | 99.4% | 99%
5 | NCCS(=O)(=O)O [taurine] | > 10 µM | > 10 µM | > 10 µM | > 10 µM | > 10 µM | 0 | 0 | 0 | 0 | 0 | 110% | 99.4% | 101% | 102% | 104% | 94.5% | 95.3% | 95.1% | 89.1% | 106% | 100% | 106% | 102% | 97.6% | 101% | 94.9% | 99.3% | 98% | 95.6% | 103% | 94.4% | 100% | 98.9% | 103% | 101%
6 | CCCc1nc2c(C)cc(-c3nc4ccccc4n3C)cc2n1Cc1ccc(-c2ccccc2C(=O)O)cc1 [telmisartan] | > 10 µM | > 10 µM | > 10 µM | > 10 µM | > 10 µM | 0 | 0 | 0 | 0 | 0 | 94.2% | 95.1% | 103% | 99.8% | 111% | 100% | 95.9% | 96% | 92.9% | 96.6% | 92.9% | 97.9% | 102% | 102% | 108% | 89.5% | 97.3% | 90.7% | 90.6% | 87.5% | 97.3% | 105% | 97.5% | 98.9% | 98.6%
7 | Cc1cc(N2CCN([C@@H]3CN[C@H](C(=O)N4CCSC4)C3)CC2)n(-c2ccccc2)n1 [teneligliptin] | > 10 µM | > 10 µM | > 10 µM | > 10 µM | > 10 µM | 0 | 0 | 0 | 0 | 0 | 101% | 106% | 98.4% | 97% | 94.7% | 104% | 98.9% | 101% | 99.2% | 98.2% | 104% | 108% | 92.6% | 91.9% | 102% | 104% | 97.9% | 94.3% | 101% | 90% | 95.8% | 101% | 99.5% | 100% | 98.3%
8 | Nc1nc2[nH]cnc2c(=S)[nH]1 [thioguanine] | 1.75 µM | 2.94 µM | > 10 µM | 1.19 µM | 1.16 µM | 7.1 | 4.8 | 0.9 | 5.7 | 7.9 | 88.1% | 99% | 86.2% | 84.1% | 19.2% | 96.6% | 103% | 92.3% | 97.5% | 19.2% | 99.6% | 103% | 95% | 94.8% | 80.5% | 101% | 90.1% | 94.6% | 76.2% | 43.4% | 104% | 98.5% | 94% | 67.4% | 25.1%
9 | CCCC(C)C1(CC)C(=O)NC(=S)NC1=O (stereo not given) [thiopental] | > 10 µM | > 10 µM | > 10 µM | > 10 µM | > 10 µM | 0.1 | 0 | 0 | 0 | 0 | 102% | 100% | 101% | 90.5% | 89.5% | 96.2% | 95.2% | 94% | 95.7% | 95.1% | 99.6% | 98.6% | 93.3% | 102% | 98.8% | 100% | 100% | 104% | 96.4% | 91% | 100% | 98.2% | 99.9% | 101% | 97.5%
10 | C[n+]1cccc(C(=O)[O-])c1 [trigonelline] | > 10 µM | > 10 µM | > 10 µM | > 10 µM | > 10 µM | 0 | 0.7 | 0 | 0 | 0 | 89.2% | 95.9% | 91.8% | 82.9% | 90.5% | 99.6% | 82.5% | 106% | 102% | 76.6% | 102% | 103% | 105% | 103% | 95.7% | 96.8% | 83.1% | 92.9% | 94% | 99.3% | 104% | 95.5% | 96.5% | 101% | 97.4%
11 | CC(C)C[C@H](NC(=O)[C@@H](O)[C@H](N)Cc1ccccc1)C(=O)O [ubenimex] | > 10 µM | > 10 µM | > 10 µM | > 10 µM | > 10 µM | 0 | 0 | 0 | 0 | 0 | 105% | 93.4% | 111% | 102% | 95.4% | 101% | 98.8% | 102% | 98.7% | 101% | 103% | 96% | 104% | 105% | 104% | 98.2% | 108% | 95.9% | 103% | 103% | 97% | 105% | 103% | 99.8% | 98.5%
12 | C[C@H](CCC(=O)O)[C@H]1CC[C@H]2[C@@H]3[C@@H](O)C[C@@H]4C[C@H](O)CC[C@]4(C)[C@H]3CC[C@]12C [ursodiol] | > 10 µM | > 10 µM | > 10 µM | > 10 µM | > 10 µM | 0 | 0 | 0 | 0.95 ± 1.3 | 0 | 97.7 ± 6.4% | 107 ± 4.5% | 97.2 ± 8.1% | 108 ± 7.4% | 106 ± 4.2% | 97.3 ± 3.1% | 101 ± 5.3% | 100 ± 6.9% | 104 ± 2.4% | 103 ± 14% | 97% | 96.6% | 102% | 87.2% | 105% | 106 ± 2.8% | 102 ± 3.9% | 98.4 ± 0.14% | 94.9 ± 5.4% | 85.8 ± 15% | 104% | 94.3% | 96.2% | 93.2% | 108%
13 | NS(=O)(=O)Cc1noc2ccccc12 [zonisamide] | > 10 µM | > 10 µM | > 10 µM | > 10 µM | > 10 µM | 0 | 0 | 0 | 0 | 0 | 110% | 102% | 98.2% | 94.5% | 102% | 101% | 93.3% | 98.5% | 93.8% | 106% | 95.1% | 97.9% | 100% | 115% | 88.1% | 84.9% | 97.9% | 96.1% | 96.3% | 106% | 94.1% | 93.9% | 92.4% | 98.4% | 102%
